Data as given in patent publication US9186335B2, “Hot melt TTS for administering rotigotine” (UCB PHARMA GMBH, priority 2002, dated 2015).

Experiment: Rotigotine purity/stability in the hot-melt adhesive matrix by gradient HPLC with UV detection
Format: physicochemical
Conditions: short-term heating to temperatures up to at least 160° C.

stability under heating: remains stable
Compound: CCCN(CCc1cccs1)[C@H]1CCc2c(O)cccc2C1 [Rotigotine, (−)-5,6,7,8-tetrahydro-6-[propyl[2-(2-thienyl)ethyl)amino]-1-napththol]
